Tested on: passive skin sensitization for the rats
Test: anti-allergic pharmacodynamics: passive skin sensitization of rats (anti-trichosanthes serum, Evans blue, 620 nm colorimetry)
Type: in vivo, Wistar male rats
Settings: rat, 5 mg/Kg IV one minute before second sensitization
Text: Research of anti-allergic pharmacodynamics of the pharmaceutical composition of the present invention
Wistar male rats with body weight of 100˜120 g were used, which were provided by the Experimental Animal Center of the Chinese Academy of Medical Sciences.
1. Tablets of this pharmaceutical composition obtained from Example 1 of this invention. It was made into a suspension with 0.5%CMC-Na.
2. Positive contrast medicament: disodium chromoglycate (produced by Shanghai Pharmaceutical Factory No. 5). It is dissolved with normal saline when it is used.
After the rats were divided in groups at random, they were lavaged and dosed with the above-mentioned pharmaceutical composition of this invention according to 6 g/Kg and 3 g/Kg, once a day, continuously for 10 days. After hair on their backs of all groups of animals was removed, said animals were sensitized for the first time with hypodermic injection with anti-trichosanthes serum. At the same time, the dosing groups took the pharmaceutical composition according to 6 g/Kg, two hours before the second sensitization. The positive contrast groups were dosed with IV of disodium chromoglycate in accordance of 5 mg/Kg, one minute before the second sensitization was made. All groups of animals were given with IV of 1% EVANSLAN (including trichosanthes protein of 1 mg/ml) in accordance with 1 mg/Kg for the second sensitization. […]

How did the Inhibition rate turn out when `O=C([O-])c1cc(=O)c2c(OCC(O)COc3cccc4oc(C(=O)[O-])cc(=O)c34)cccc2o1.[Na+].[Na+]` [Positive contrast, disodium chromoglycate] was run?
The Inhibition rate was 78.2%.

And the “OD value (X ± SD)” value (620 nm)?
Its value is 0.19 ± 0.11.
